From US20060062823A1, “Microtubule stabilisers for treating stenosis in stents” (priority 2002, published 2006)

Columns and labels:
[1] = system: rat carotid artery balloon injury model; test: Inhibition of late neointimal lesion formation in the 28 day rat carotid artery balloon injury model; format: in vivo
[2] = system: rabbit iliac stent model; test: Inhibition of restenosis at 28 days in the rabbit iliac stent model; format: in vivo, New Zealand White rabbit; conditions: 28 days after stenting, vs placebo
Method: A.2 Inhibition of Restenosis at 28 Days in the Rabbit Iliac Stent Model
A combined angioplasty and stenting procedure is performed in New Zealand White rabbit iliac arteries. Iliac artery balloon injury is performed by inflating a 3.0×9.0 mm angioplasty balloon in the mid-portion of the artery followed by “pull-back” of the catheter for 1 balloon length. Balloon injury is repeated 2 times, and a 3.0×12 mm stent is deployed at 6 atm for 30 seconds in the iliac artery. Balloon injury and stent placement is then performed on the contralateral iliac artery in the same manner. A post-stent deployment angiogram is performed. All animals receive oral aspirin 40 mg/day daily as anti-platelet therapy and are fed standard low-cholesterol rabbit chow. Twenty-eight days after stenting, animals are anesthetized and euthanized and the arterial tree is perfused at 100 mmHg with lactated Ringer's for several minutes, then perfused with 10% formalin at 100 mmHg for 15 minutes. The vascular section between the distal aorta and the proximal femoral arteries is excised and cleaned of periadventitial tissue. The stented section of artery is embedded in plastic and sections are taken from the proximal, middle, and distal portions of each stent. All sections are stained with hematoxylin-eosin and Movat pentachrome stains. Computerized planimetry is performed to determine the area of the internal elastic lamina (IEL), external elastic lamina (EEL) and lumen. The neointima and neointimal thickness is measured both at and between the stent struts. The vessel area is measured as the area within the EEL. Data are expressed as mean±SEM. Statistical analysis of the histologic data is accomplished using analysis of variance (ANOVA) due to the fact that two stented arteries are measured per animal with a mean generated per animal. A P<0.05 is considered statistically significant.
An MIA, e.g. a compound of formula 1, e.g. epothilone B is administered orally by gavage at an initial dose one day prior to stenting, then dosed at 50% of the initial dose from the day of stenting until day 27 post-stenting.

[3] = (+)-Discodermolide release from polymer coatings in aqueous solution; format: physicochemical; conditions: polylactide glycolide coated stent pieces in PBS pH 7.4 or PEG 400/water 40/60 v/v, 37° C., solutions changed daily; stable = less than 10% of variation of the release rate
Method: (§1) A stent (e.g. a Multi-Link Vision stent, Guidant Corp.; or a DRIVER stent, Medtronic Corp.) is weighed and then mounted on a rotating or other support for coating with a polymer or other synthetic or biologic carrier used as a drug reservoir. In an example of an application of one such carrier, while the stent is rotating, a 100 μl aliquot of a solution of polylactide glycolide, 0.75 mg/ml of (+)-discodermolide and 0.0015 mg/ml 2,6-di-tert-butyl-4-methylphenol dissolved in a 50:50 mixture of methanol and tetrahydrofuran, is coated onto it. The coated stent is removed from the support and allowed to air-dry. After a final weighing the amount of coating on the stent is determined.
A.4 (+)-Discodermolide Release from Polymer Coatings in Aqueous Solution
Four 2 cm pieces of coated stents as described above are placed into 100 mL of phosphate buffer solution (PBS) having a pH of 7.4. Another 4 pieces from each series are placed into 100 mL of polyethylene glycol (PEG)/water solution (40/60 v/v, MW of PEG=400). The stent pieces are incubated at 37° C. in a shaker. The buffer and PEG solutions are changed daily and different assays are performed on the solution to determine the released (+)-discodermolide concentrations.

[4] = (+)-Discodermolide release from polymer coatings in plasma; format: physicochemical; conditions: coated stent pieces in citrated human plasma, 37° C., plasma changed daily
Method: as §1
A.5 (+)-Discodermolide Release from Polymer Coatings in Plasma
Release of (+)-discodermolide in plasma can also be studied. 1 cm pieces of a coated stent are put into 1 mL of citrated human plasma (from Helena Labs.) in lyophilized form and reconstituted by adding 1 mL of sterile deionized water. Three sets of stent plasma solutions are incubated at 37° C. and the plasma is changed daily. Different assays are performed on the solution to determine the released (+)-discodermolide concentrations.

[5] = administered locally to the adventitia via catheter/Alzet minipump

Row | Compound | infiltration of CD45+ leukocytes ([1]; administered locally to the adventitia adjacent to the ballooned carotid via catheter/Alzet minipump, day 1) | constrictive remodeling [1, 5] | early (9 days post-ballooning) and late (21-31 days post-ballooning) neointimal lesions [1, 5] | CD45-positive leukocyte infiltration into the vessel wall and adventitia ([1]; rats dosed orally, daily, 1 day after balloon injury) | neointimal lesion formation following balloon injury ([1]; rats dosed orally, daily, at 9 and 12 days) | extent of restenotic lesion formation ([2]; oral gavage from one day prior to stenting until day 27) | lesion formation in the portions of artery immediately proximal and immediately distal to the stent ([2]; oral gavage) | number of inflammatory cells, especially in the area surrounding the stent struts ([2]; oral gavage) | drug release from coated stents [3] | drug release from coated stents in plasma [4]
1 | C/C(=C\c1csc(C)n1)[C@@H]1C[C@@H]2O[C@]2(C)CCC[C@H](C)[C@H](O)[C@@H](C)C(=O)C(C)(C)[C@@H](O)CC(=O)O1 [epothilone B] | potent inhibition | potent inhibition | potent inhibition | significantly reduce | significantly reduce | marked reduction | inhibited | significantly reduced | – | –
2 | (+)-discodermolide | – | – | – | – | – | – | – | – | stable (+)-discodermolide release | stable (+)-discodermolide release
